Measured values published in US20250339426A1, “GCN2 MODULATOR FOR TREATING CANCER” (HIBERCELL, INC., priority 2022, published 2025).

Legend:
CTG-2456 = test: Ex vivo AML PDX cell viability (Cell Titer Glo); format: cell-based; conditions: Homo sapiens, 144 h; PDX model CTG-2456, 6 days; read-out: HC-7366 EC50
Description: (§1) . Cell viability was assayed after treating PDX models with DMSO or HC-7366 for 6 days using a plate-based luminescence assay (Cell Titer Glo). […]
(§2) EC50 values were calculated to the bottom of the curve and are provided below. Viability curves are provided for the models CTG-2229 (FIG. 81), CTG-3680 (FIG. 82), CTG-3667 (FIG. 83), CTG-2456 (FIG. 84), CTG-2457 (FIG. 85), and CTG-2454 (FIG. 86).

CTG-2238 = test: Ex vivo AML PDX cell viability (Cell Titer Glo); format: cell-based; conditions: Homo sapiens, 144 h; PDX model CTG-2238, 6 days; read-out: HC-7366 EC50
Description: as §1, §2

CTG-3439 = test: Ex vivo AML PDX cell viability (Cell Titer Glo); format: cell-based; conditions: Homo sapiens, 144 h; PDX model CTG-3439, 6 days; read-out: HC-7366 EC50
Description: as §1, §2

CTG-2453 = test: Ex vivo AML PDX cell viability (Cell Titer Glo); format: cell-based; conditions: Homo sapiens, 144 h; PDX model CTG-2453, 6 days; read-out: HC-7366 EC50
Description: as §1, §2

CTG-2775 = test: Ex vivo AML PDX cell viability (Cell Titer Glo); format: cell-based; conditions: Homo sapiens, 144 h; PDX model CTG-2775, 6 days; read-out: HC-7366 EC50
Description: as §1, §2

CTG-2234 = test: Ex vivo AML PDX cell viability (Cell Titer Glo); format: cell-based; conditions: Homo sapiens, 144 h; PDX model CTG-2234, 6 days; read-out: HC-7366 EC50
Description: as §1, §2

CTG-3440 = test: Ex vivo AML PDX cell viability (Cell Titer Glo); format: cell-based; conditions: Homo sapiens, 144 h; PDX model CTG-3440, 6 days; read-out: HC-7366 EC50
Description: as §1, §2

CTG-2455 = test: Ex vivo AML PDX cell viability (Cell Titer Glo); format: cell-based; conditions: Homo sapiens, 144 h; PDX model CTG-2455, 6 days; read-out: HC-7366 EC50
Description: as §1, §2

CTG-2229 = test: Ex vivo AML PDX cell viability (Cell Titer Glo); format: cell-based; conditions: Homo sapiens, 144 h; PDX model CTG-2229, 6 days; read-out: HC-7366 EC50
Description: as §1, §2

CTG-2233 = test: Ex vivo AML PDX cell viability (Cell Titer Glo); format: cell-based; conditions: Homo sapiens, 144 h; PDX model CTG-2233, 6 days; read-out: HC-7366 EC50
Description: as §1, §2

CTG-2227 = test: Ex vivo AML PDX cell viability (Cell Titer Glo); format: cell-based; conditions: Homo sapiens, 144 h; PDX model CTG-2227, 6 days; read-out: HC-7366 EC50
Description: as §1, §2

CTG-3680 = test: Ex vivo AML PDX cell viability (Cell Titer Glo); format: cell-based; conditions: Homo sapiens, 144 h; PDX model CTG-3680, 6 days; read-out: HC-7366 EC50
Description: as §1, §2

CTG-3679 = test: Ex vivo AML PDX cell viability (Cell Titer Glo); format: cell-based; conditions: Homo sapiens, 144 h; PDX model CTG-3679, 6 days; read-out: HC-7366 EC50
Description: as §1, §2

CTG-3438 = test: Ex vivo AML PDX cell viability (Cell Titer Glo); format: cell-based; conditions: Homo sapiens, 144 h; PDX model CTG-3438, 6 days; read-out: HC-7366 EC50
Description: as §1, §2

CTG-2457 = test: Ex vivo AML PDX cell viability (Cell Titer Glo); format: cell-based; conditions: Homo sapiens, 144 h; PDX model CTG-2457, 6 days; read-out: HC-7366 EC50
Description: as §1, §2

CTG-3673 = test: Ex vivo AML PDX cell viability (Cell Titer Glo); format: cell-based; conditions: Homo sapiens, 144 h; PDX model CTG-3673, 6 days; read-out: HC-7366 EC50
Description: as §1, §2

CTG-2235 = test: Ex vivo AML PDX cell viability (Cell Titer Glo); format: cell-based; conditions: Homo sapiens, 144 h; PDX model CTG-2235, 6 days; read-out: HC-7366 EC50
Description: as §1, §2

[1] = system: LoVo (human colorectal cancer cells); test: In vivo tumor growth inhibition, LoVo xenograft; parameters: species or system BALB/c nude mice; conditions: both 1 and 3 mg/kg twice daily oral
Description: LoVo (human colorectal cancer cells): Female 6-8 weeks old BALB/c nude mice were inoculated subcutaneously on the right flank with LoVo tumor cells (5×10^6) in 0.1 ml of EMEM medium without serum for tumor development. The treatments were started when the mean tumor size reached approximately 243 mm^3 at Day 16 post inoculation and continued until end of study by twice daily oral gavage dosing of HC-7366 at listed doses (vehicle, 0.3 mg/kg HC-7366, 1 mg/kg HC-7366, 3 mg/kg HC-7366, 10 mg/kg HC-7366, or 30 mg/kg HC-7366, FIGS. 8-9).
(§3) [formula] • 2.2.2 Tumor Measurements: The measurement of tumor size was conducted three times weekly with a caliper and recorded. The tumor volume (mm^3) was estimated using the formula: TV=a×b^2/2, where “a” and “b” is long and short diameters of a tumor, respectively. Tumor volume was calculated using the formula [tumor volume (mm^3)=π/6×length×width^2).
(§4) Regression was calculated using the formula=100×ΔT/T initial, if ΔT<0. Animals with 0 mm^3 tumor volume (no measurable tumor) for three consecutive measurements were considered as complete responders and animals with 50% tumor regressions were partial responders.

[2] = system: patient-derived Champions' human AML models; test: Ex vivo AML PDX cell viability (Cell Titer Glo), 30 models; format: cell-based; conditions: for EC50: Homo sapiens
Description: as §1, §2

[3] = system: OCI-AML2 (human AML cancer cells); test: In vivo tumor growth inhibition, OCI-AML2 xenograft; parameters: species or system NOD SCID mice
Description: OCI-AML2 (human AML cancer cells): Female 6-8 weeks old NOD SCID mice were inoculated subcutaneously on the right flank with OCI-AML2 tumor cells (5×10^6) in RPMI 1640 without serum for tumor development. The treatments were started when the mean tumor size reached approximately 149 mm^3 at Day 7 after cell inoculation and continued until end of study by twice daily oral gavage dosing of HC-7366 at listed doses (vehicle, 0.3 mg/kg HC-7366, 1 mg/kg HC-7366, 3 mg/kg HC-7366, 10 mg/kg HC-7366, or 30 mg/kg HC-7366, FIG. 19).
as §3, §4

Question: How did the EC50 (CTG-2456) turn out when `CNC(=O)c1ncn2cc(-c3c(F)ccc(NS(=O)(=O)c4cc(Cl)cnc4OC)c3F)ncc12` [HC-7366, 6-(3-((5-chloro-2-methoxypyridine)-3-sulfonamido)-2,6-difluorophenyl)-N-methylimidazo[1,5-a]pyrazine-1-carboxamide] was run?
Answer: The EC50 was 31.8 µM.

Question: And the EC50 (CTG-2238)?
Answer: Its EC50 is 123 µM.

Question: What about the EC50 (CTG-3439) of the same compound?
Answer: The EC50 was 349 µM.

Question: And the EC50 (CTG-2453)?
Answer: Its EC50 is 180 µM.

Question: What about the EC50 (CTG-2775) of the same compound?
Answer: The EC50 was 43.4 µM.

Question: What about the EC50 (CTG-2234) of the same compound?
Answer: Its EC50 is 65.5 µM.

Question: And the EC50 (CTG-3440)?
Answer: The EC50 was 55.2 µM.

Question: What about the EC50 (CTG-2455) of the same compound?
Answer: Its EC50 is 35.7 µM.

Question: What about the EC50 (CTG-2229) of the same compound?
Answer: The EC50 was 34 µM.

Question: What about the EC50 (CTG-2233) of the same compound?
Answer: Its EC50 is 102 µM.

Question: What about the EC50 (CTG-2227) of the same compound?
Answer: Its EC50 is 39.9 µM.

Question: And the EC50 (CTG-3680)?
Answer: The EC50 was 231 µM.

Question: And the EC50 (CTG-3679)?
Answer: Its EC50 is 107 µM.

Question: What about the EC50 (CTG-3438) of the same compound?
Answer: The EC50 was 196 µM.

Question: And the EC50 (CTG-2457)?
Answer: The EC50 was 248 µM.

Question: And the EC50 (CTG-3673)?
Answer: Its EC50 is 65.6 µM.

Question: And the EC50 (CTG-2235)?
Answer: The EC50 was 103 µM.

Question: And the tumor growth inhibition [1]?
Answer: The tumor growth inhibition was 94%.

Question: And the “viability of primary AML PDX cells” value ([2]; 4.57-10,000 nM, 6 days)?
Answer: Its value is “potently reduced viability”.

Question: What about the EC50 ([2]; 5 PDX models, resistant responders) of the same compound?
Answer: Its EC50 is 0.924 to 2.25 µM.

Question: And the EC50 ([2]; 11 PDX models, sensitive responders)?
Answer: The EC50 was less than 0.1 µM.

Question: And the EC50 ([2]; 12 PDX models, moderate responders)?
Answer: Its EC50 is 0.1 to 0.35 µM.

Question: And the response ([2]; two models)?
Answer: The response was “no response”.

Question: And the TGI ([3]; 10 mg/kg twice daily oral)?
Answer: Its TGI is “about 47%”.

Question: And the TGI ([3]; 30 mg/kg twice daily oral)?
Answer: Its TGI is roughly 51%.
